The values below come from patent publication US20150274719A1, “AMINO-SUBSTITUTED IMIDAZO[1,2-A]PYRIDINECARBOXAMIDES AND THEIR USE” (BAYER PHARMA AKTIENGESELLSCHAFT, priority 2012, published 2015).

The test deals with T1, recombinant guanylate cyclase reporter cell line (Rattus norvegicus, UniProt P19686+P20595).
T1 construct: expressed in transfected cells; host or cells: recombinant reporter cell line
T1 sequence (P19686 1-690): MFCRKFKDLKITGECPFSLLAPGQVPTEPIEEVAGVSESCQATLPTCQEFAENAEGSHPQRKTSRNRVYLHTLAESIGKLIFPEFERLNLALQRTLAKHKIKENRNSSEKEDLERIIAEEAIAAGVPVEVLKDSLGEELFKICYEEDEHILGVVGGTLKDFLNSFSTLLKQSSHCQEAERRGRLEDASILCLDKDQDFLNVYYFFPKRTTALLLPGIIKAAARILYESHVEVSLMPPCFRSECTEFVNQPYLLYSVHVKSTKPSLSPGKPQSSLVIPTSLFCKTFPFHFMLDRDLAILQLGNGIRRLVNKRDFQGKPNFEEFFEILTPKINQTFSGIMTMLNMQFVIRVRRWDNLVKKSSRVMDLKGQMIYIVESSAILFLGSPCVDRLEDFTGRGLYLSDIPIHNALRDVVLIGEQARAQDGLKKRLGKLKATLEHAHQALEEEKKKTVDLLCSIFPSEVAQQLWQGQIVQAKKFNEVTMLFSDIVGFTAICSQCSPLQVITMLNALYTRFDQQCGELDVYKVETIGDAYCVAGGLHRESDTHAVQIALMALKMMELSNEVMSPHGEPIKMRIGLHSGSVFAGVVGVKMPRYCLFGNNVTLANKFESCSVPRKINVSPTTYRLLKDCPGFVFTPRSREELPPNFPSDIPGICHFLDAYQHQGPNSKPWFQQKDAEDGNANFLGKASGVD
T1 sequence (P20595 1-619): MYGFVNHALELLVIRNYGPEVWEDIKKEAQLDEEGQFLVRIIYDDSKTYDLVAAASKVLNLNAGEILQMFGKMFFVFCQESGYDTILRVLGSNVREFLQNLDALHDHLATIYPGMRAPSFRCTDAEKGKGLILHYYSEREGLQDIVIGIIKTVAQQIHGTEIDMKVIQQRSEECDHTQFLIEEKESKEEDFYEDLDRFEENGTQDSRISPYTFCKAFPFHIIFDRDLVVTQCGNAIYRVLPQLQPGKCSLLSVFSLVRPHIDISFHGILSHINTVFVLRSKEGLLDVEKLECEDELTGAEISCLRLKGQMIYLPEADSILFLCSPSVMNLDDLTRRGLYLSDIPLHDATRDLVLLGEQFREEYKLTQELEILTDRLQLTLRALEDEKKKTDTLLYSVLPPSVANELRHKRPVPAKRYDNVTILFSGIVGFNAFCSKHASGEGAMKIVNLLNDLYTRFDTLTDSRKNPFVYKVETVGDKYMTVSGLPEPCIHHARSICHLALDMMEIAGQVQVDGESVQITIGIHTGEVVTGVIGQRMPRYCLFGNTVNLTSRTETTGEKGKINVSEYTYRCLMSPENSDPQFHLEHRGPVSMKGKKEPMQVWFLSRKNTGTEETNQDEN
Kind of test: Action on recombinant guanylate cyclase reporter cell line. It counts as cell-based. The note with it: in some cases mean values from individual determinations. Here is the method:
B-2. Action on Recombinant Guanylate Cyclase Reporter Cell Line
The cellular action of the compounds according to the invention is determined on a recombinant guanylate cyclase reporter cell line, as described in F. Wunder et al., Anal. Biochem. 339, 104-112 (2005).
Representative MEC values (MEC=minimal effective concentration) for the compounds according to the invention are shown in the following table (in some cases as mean values obtained from individual determinations): […]

Structures can show the parent of a compound that is named as a salt.

On to `Cc1cc(OCc2c(F)cccc2F)c2nc(C)c(C(=O)NC3CCC(N)C3)n2c1` (mixture of isomers) [Example 308, N-(3-aminocyclopentyl)-8-[(2,6-difluorobenzyl)oxy]-2,6-dimethylimidazo[1,2-a]pyridine-3-carboxamide (stereoisomer mixture)], for which the “MEC (minimal effective concentration)” value worked out at 0.20 µM.
With `Cc1cc(OCc2c(F)cccc2F)c2nc(C)c(C(=O)NC3CNCC3C(F)(F)F)n2c1` (mixture of isomers) [Example 313, 8-[(2,6-Difluorobenzyl)oxy]-2,6-dimethyl-N-[4-(trifluoromethyl)pyrrolidin-3-yl]imidazo[1,2-a]pyridine-3-carboxamide (mixture of stereoisomers)] the figure was 0.30 µM; with `Cc1cc(OCc2c(F)cccc2F)c2nc(C)c(C(=O)NC3CC(N)C3)n2c1` (mixture of isomers) [Example 334, N-(3-aminocyclobutyl)-8-[(2,6-difluorobenzyl)oxy]-2,6-dimethylimidazo[1,2-a]pyridine-3-carboxamide (cis/trans mixture)], 1.00 µM; with `Cc1cc(OCc2c(F)cccc2F)c2nc(C)c(C(=O)NC3CC(C)(C)C3N)n2c1` (mixture of isomers) [Example 358, N-(2-amino-3,3-dimethylcyclobutyl)-8-[(2,6-difluorobenzyl)oxy]-2,6-dimethylimidazo[1,2-a]pyridine-3-carboxamide Formate (Isomer Mixture)], 0.30 µM.
As to `Cc1nc2c(OCc3c(F)cccc3F)cccn2c1C(=O)NC(CN)CC(F)(F)F` (racemic) [Example 2, rac-N-(1-Amino-4,4,4-trifluorobutan-2-yl)-8-[(2,6-difluorobenzyl)oxy]-2-methylimidazo[1,2-a]-pyridine-3-carboxamide], the “MEC (minimal effective concentration)” value turned out to be 0.65 µM.
`Cc1nc2c(OCc3c(F)cccc3F)cccn2c1C(=O)NC(CN)CC(C(F)(F)F)C(F)(F)F` (racemic) [Example 5, rac-N-[1-amino-5,5,5-trifluoro-4-(trifluoromethyl)pentan-2-yl]-8-[(2,6-difluorobenzyl)oxy]-2-methylimidazo[1,2-a]-pyridine-3-carboxamide trifluoroacetate]: the “MEC (minimal effective concentration)” value amounted to 1.00 µM.
With `Cc1nc2c(OCc3c(F)cccc3F)cccn2c1C(=O)NC(CN)c1ccc(F)cc1` (racemic) [Example 9, rac-N-[2-Amino-1-(4-fluorophenyl)ethyl]-8-[(2,6-difluorobenzyl)oxy]-2-methylimidazo[1,2-a]-pyridine-3-carboxamide] the figure was 0.30 µM; with `Cc1nc2c(OCc3c(F)cccc3F)cccn2c1C(=O)NC(CN)c1ccc(F)c(F)c1` (racemic) [Example 11, rac-N-[2-Amino-1-(3,4-difluorophenyl)ethyl]-8-[(2,6-difluorobenzyl)oxy]-2-methylimidazo[1,2-a]pyridine-3-carboxamide], 0.30 µM.
The figure for `Cc1nc2c(OCc3c(F)cccc3F)cccn2c1C(=O)NC(CN)c1ccc(Cl)cc1` (racemic) [Example 14, rac-N-[2-Amino-1-(4-chlorophenyl)ethyl]-8-[(2,6-difluorobenzyl)oxy]-2-methylimidazo[1,2-a]-pyridine-3-carboxamide dihydrochloride] is 1.00 µM; for `Cc1nc2c(OCc3c(F)cccc3F)cccn2c1C(=O)NC(CN)c1ccccc1` (racemic) [Example 16, rac-N-(2-Amino-1-phenylethyl)-8-[(2,6-difluorobenzyl)oxy]-2-methylimidazo[1,2-a]pyridine-3-carboxamide dihydrochloride] it is 0.30 µM; for `Cc1nc2c(OCc3c(F)cccc3F)cccn2c1C(=O)NC(C)CN` (racemic) [Example 17, rac-N-(1-aminopropan-2-yl)-8-[(2,6-difluorobenzyl)oxy]-2-methylimidazo[1,2-a]pyridine-3-carboxamide dihydrochloride] it is 1.00 µM.
With `Cc1nc2c(OCc3c(F)cccc3F)cc(Cl)cn2c1C(=O)NCC(C)N` (racemic) [Example 23, rac-N-(2-aminopropyl)-6-chloro-8-[(2,6-difluorobenzyl)oxy]-2-methylimidazo[1,2-a]-pyridine-3-carboxamide] the figure was 0.30 µM; with `Cc1nc2c(OCc3c(F)cccc3F)cccn2c1C(=O)NC1CNc2ccccc21` (racemic) [Example 28, rac-8-[(2,6-difluorobenzyl)oxy]-N-(2,3-dihydro-1H-indol-3-yl)-2-methylimidazo[1,2-a]pyridine-3-carboxamide], 0.30 µM.
As for `Cc1nc2c(OCc3c(F)cccc3F)cccn2c1C(=O)NCC(C)N` (racemic) [Example 34, rac-N-(2-aminopropyl)-8-[(2,6-difluorobenzyl)-oxy]-2-methyl-imidazo[1,2-a]pyridine-3-carboxamide dihydrochloride], the “MEC (minimal effective concentration)” value was 1.00 µM.
With `Cc1nc2c(OCC3CCCCC3)cccn2c1C(=O)NC(CN)c1ccc(Cl)cc1` (racemic) [Example 43, rac-N-[2-Amino-1-(4-chlorophenyl)ethyl]-8-(cyclohexylmethoxy)-2-methylimidazo[1,2-a]-pyridine-3-carboxamide] the figure was 1.00 µM; with `Cc1nc2c(OCC3CCCCC3)cccn2c1C(=O)NC(CN)c1ccccc1` (racemic) [Example 44, rac-N-(2-Amino-1-phenylethyl)-8-(cyclohexylmethoxy)-2-methylimidazo[1,2-a]pyridine-3-carboxamide], 0.30 µM.
With `Cc1nc2c(OCC3CCCCC3)cccn2c1C(=O)NC(CN)c1ccc(F)c(F)c1` (racemic) [Example 46, rac-N-[2-Amino-1-(3,4-difluorophenyl)ethyl]-8-(cyclohexylmethoxy)-2-methylimidazo[1,2-a]-pyridine-3-carboxamide] the figure was 1.00 µM.
The figure for `Cc1nc2c(OCc3c(F)cccc3F)cc(Cl)cn2c1C(=O)NC1CNc2ccccc21` (racemic) [Example 49, rac-6-Chloro-8-[(2,6-difluorobenzyl)oxy]-N-(2,3-dihydro-1H-indol-3-yl)-2-methylimidazo[1,2-a]-pyridine-3-carboxamide] is 0.30 µM.
On to `Cc1nc2c(OCc3c(F)cccc3F)cccn2c1C(=O)NC1CCNc2ccccc21` (racemic) [Example 50, rac-8-[(2,6-Difluorobenzyl)oxy]-2-methyl-N-(1,2,3,4-tetrahydroquinolin-4-yl)imidazo[1,2-a]-pyridine-3-carboxamide], for which the “MEC (minimal effective concentration)” value stood at 0.03 µM.
With `Cc1nc2c(OCc3c(F)cccc3F)cccn2c1C(=O)NC(CN)COc1ccc(F)cc1` (racemic) [Example 58, rac-N-[1-amino-3-(4-fluorophenoxy)propan-2-yl]-8-[(2,6-difluorobenzyl)oxy]-2-methylimidazo[1,2-a]pyridine-3-carboxamide] the figure was 1.00 µM; with `Cc1nc2c(OCc3c(F)cccc3F)cccn2c1C(=O)NC(CN)COc1ccccc1` (racemic) [Example 59, rac-N-(1-amino-3-phenoxypropan-2-yl)-8-[(2,6-difluorobenzyl)oxy]-2-methylimidazo[1,2-a]-pyridine-3-carboxamide dihydrochloride], 3.00 µM.
The figure for `Cc1nc2c(OCc3c(F)cccc3F)cccn2c1C(=O)NC(CN)COC(C)C` (racemic) [Example 63, rac-N-(1-Amino-3-isopropoxypropan-2-yl)-8-[(2,6-difluorobenzyl)oxy]-2-methylimidazo[1,2-a]-pyridine-3-carboxamide] is 0.30 µM.
